“And” between values parts separate entries of the source, which are not always exact repeats. Equal entries are not always repeated. Marks after values point to notes of the source that are not given here. [PEt] = P-ethoxy (ethyl phosphotriester) internucleoside linkage
Test: Adverse events in study 2003-0578 (NCI CTCAE grading)
[1] = patient 1, 5 mg/m^2 monotherapy
[2] = patient 10, 5 mg/m^2 monotherapy

BP1001: liposome-incorporated P-ethoxy antisense oligodeoxynucleotide (5′-ATATTTGGCGATGGCTTC-3′, SEQ ID NO: 1) specific to grb2 mRNA, in neutral DOPC liposomes (DNA, all [PEt], methylation of C not given here; incorporated in neutral DOPC liposomes)
Yes ^a: Dose-limiting Toxicity (DLT): Palmar-plantar erythrodysesthesia (hand and foot) syndrome [1]
0: Blood and lymphatic system disorders ≥Grade 3, number of patients (monotherapy 60 mg/m^2 (n = 3)) | Cardiac disorders ≥Grade 3, number of patients (monotherapy 60 mg/m^2 (n = 3)) | Cataract ≥Grade 3, number of patients (monotherapy 60 mg/m^2 (n = 3)) | Dyspnea ≥Grade 3, number of patients (monotherapy 60 mg/m^2 (n = 3)) | Extremity Lower Edema ≥Grade 3, number of patients (monotherapy 60 mg/m^2 (n = 3)) | Eye disorders ≥Grade 3, number of patients (monotherapy 60 mg/m^2 (n = 3)) | Febrile neutropenia ≥Grade 3, number of patients (monotherapy 60 mg/m^2 (n = 3)) | Gastrointestinal disorders ≥Grade 3, number of patients (monotherapy 60 mg/m^2 (n = 3)) | General disorders and administration site conditions ≥Grade 3, number of patients (monotherapy 60 mg/m^2 (n = 3)) | Hallucinations ≥Grade 3, number of patients (monotherapy 60 mg/m^2 (n = 3)) | Heart failure ≥Grade 3, number of patients (monotherapy 60 mg/m^2 (n = 3)) | Hepatic failure ≥Grade 3, number of patients (monotherapy 60 mg/m^2 (n = 3)) | Hepatobiliary disorders ≥Grade 3, number of patients (monotherapy 60 mg/m^2 (n = 3)) | Hypocalcemia ≥Grade 3, number of patients (monotherapy 60 mg/m^2 (n = 3)) | Hypoglycemia ≥Grade 3, number of patients (monotherapy 60 mg/m^2 (n = 3)) | Hypokalemia ≥Grade 3, number of patients (monotherapy 60 mg/m^2 (n = 3)) | Hyponatremia ≥Grade 3, number of patients (monotherapy 60 mg/m^2 (n = 3)) | Hypotension ≥Grade 3, number of patients (monotherapy 60 mg/m^2 (n = 3)) | Hypovolemia ≥Grade 3, number of patients (monotherapy 60 mg/m^2 (n = 3)) | Hypoxia ≥Grade 3, number of patients (monotherapy 60 mg/m^2 (n = 3)) | Investigations ≥Grade 3, number of patients (monotherapy 60 mg/m^2 (n = 3)) | Leukocytosis ≥Grade 3, number of patients (monotherapy 60 mg/m^2 (n = 3)) | Metabolism and nutritional disorders ≥Grade 3, number of patients (monotherapy 60 mg/m^2 (n = 3)) | Multi-organ failure ≥Grade 3, number of patients (monotherapy 60 mg/m^2 (n = 3)) | Musculoskeletal and connective tissue disorders ≥Grade 3, number of patients (monotherapy 60 mg/m^2 (n = 3)) | Penile Pain ≥Grade 3, number of patients (monotherapy 60 mg/m^2 (n = 3)) | Platelet count decreased ≥Grade 3, number of patients (monotherapy 60 mg/m^2 (n = 3)) | Pneumonia ≥Grade 3, number of patients (monotherapy 60 mg/m^2 (n = 3)) | Psychiatric disorders ≥Grade 3, number of patients (monotherapy 60 mg/m^2 (n = 3)) | Renal and urinary disorders ≥Grade 3, number of patients (monotherapy 60 mg/m^2 (n = 3)) | Reproductive system and breast disorders ≥Grade 3, number of patients (monotherapy 60 mg/m^2 (n = 3)) | Respiratory distress ≥Grade 3, number of patients (monotherapy 60 mg/m^2 (n = 3)) | Respiratory failure ≥Grade 3, number of patients (monotherapy 60 mg/m^2 (n = 3)) | Respiratory, thoracic, and mediastinal disorders ≥Grade 3, number of patients (monotherapy 60 mg/m^2 (n = 3)) | Tumor lysis syndrome ≥Grade 3, number of patients (monotherapy 60 mg/m^2 (n = 3)) | Vascular disorders ≥Grade 3, number of patients (monotherapy 60 mg/m^2 (n = 3)) | Abdominal Pain ≥Grade 3, number of patients (monotherapy 90 mg/m^2 (n = 4)) | Acidosis ≥Grade 3, number of patients (monotherapy 90 mg/m^2 (n = 4)) | Acute kidney injury ≥Grade 3, number of patients (monotherapy 90 mg/m^2 (n = 4)) | Back Pain ≥Grade 3, number of patients (monotherapy 90 mg/m^2 (n = 4)) | Cardiac disorders ≥Grade 3, number of patients (monotherapy 90 mg/m^2 (n = 4)) | Cataract ≥Grade 3, number of patients (monotherapy 90 mg/m^2 (n = 4)) | Extremity Lower Edema ≥Grade 3, number of patients (monotherapy 90 mg/m^2 (n = 4)) | Eye disorders ≥Grade 3, number of patients (monotherapy 90 mg/m^2 (n = 4)) | Febrile neutropenia ≥Grade 3, number of patients (monotherapy 90 mg/m^2 (n = 4)) | Gastrointestinal disorders ≥Grade 3, number of patients (monotherapy 90 mg/m^2 (n = 4)) | Hallucinations ≥Grade 3, number of patients (monotherapy 90 mg/m^2 (n = 4)) | Heart failure ≥Grade 3, number of patients (monotherapy 90 mg/m^2 (n = 4)) | Hepatic failure ≥Grade 3, number of patients (monotherapy 90 mg/m^2 (n = 4)) | Hepatobiliary disorders ≥Grade 3, number of patients (monotherapy 90 mg/m^2 (n = 4)) | Hypoglycemia ≥Grade 3, number of patients (monotherapy 90 mg/m^2 (n = 4)) | Hypotension ≥Grade 3, number of patients (monotherapy 90 mg/m^2 (n = 4)) | Hypovolemia ≥Grade 3, number of patients (monotherapy 90 mg/m^2 (n = 4)) | Hypoxia ≥Grade 3, number of patients (monotherapy 90 mg/m^2 (n = 4)) | Multi-organ failure ≥Grade 3, number of patients (monotherapy 90 mg/m^2 (n = 4)) | Musculoskeletal and connective tissue disorders ≥Grade 3, number of patients (monotherapy 90 mg/m^2 (n = 4)) | Neoplasms benign, malignant, and unspecified (incl. cysts and polyps) ≥Grade 3, number of patients (monotherapy 90 mg/m^2 (n = 4)) | Penile Pain ≥Grade 3, number of patients (monotherapy 90 mg/m^2 (n = 4)) | Psychiatric disorders ≥Grade 3, number of patients (monotherapy 90 mg/m^2 (n = 4)) | Renal and urinary disorders ≥Grade 3, number of patients (monotherapy 90 mg/m^2 (n = 4)) | Reproductive system and breast disorders ≥Grade 3, number of patients (monotherapy 90 mg/m^2 (n = 4)) | Respiratory distress ≥Grade 3, number of patients (monotherapy 90 mg/m^2 (n = 4)) | Respiratory failure ≥Grade 3, number of patients (monotherapy 90 mg/m^2 (n = 4)) | Tumor lysis syndrome ≥Grade 3, number of patients (monotherapy 90 mg/m^2 (n = 4)) | Vascular disorders ≥Grade 3, number of patients (monotherapy 90 mg/m^2 (n = 4))
5: Grade: Multi-organ failure [1]
1: Neoplasms benign, malignant, and unspecified (incl. cysts and polyps) ≥Grade 3, number of patients (monotherapy 60 mg/m^2 (n = 3)) | Patients with AEs ≥Grade 3, number of patients (monotherapy 60 mg/m^2 (n = 3)) | Asthenia ≥Grade 3, number of patients (monotherapy 90 mg/m^2 (n = 4)) | Blood and lymphatic system disorders ≥Grade 3, number of patients (monotherapy 90 mg/m^2 (n = 4)) | Dyspnea ≥Grade 3, number of patients (monotherapy 90 mg/m^2 (n = 4)) | General disorders and administration site conditions ≥Grade 3, number of patients (monotherapy 90 mg/m^2 (n = 4)) | Hypocalcemia ≥Grade 3, number of patients (monotherapy 90 mg/m^2 (n = 4)) | Hypokalemia ≥Grade 3, number of patients (monotherapy 90 mg/m^2 (n = 4)) | Hyponatremia ≥Grade 3, number of patients (monotherapy 90 mg/m^2 (n = 4)) | Investigations ≥Grade 3, number of patients (monotherapy 90 mg/m^2 (n = 4)) | Leukocytosis ≥Grade 3, number of patients (monotherapy 90 mg/m^2 (n = 4)) | Respiratory, thoracic, and mediastinal disorders ≥Grade 3, number of patients (monotherapy 90 mg/m^2 (n = 4)) | Grade: Coagulopathy (related to study drug) [1] | Grade: Confusion [1] | Grade: Diarrhea [1] | Grade: Fever (pyrexia) [1] | Grade: Pruritus [1]
4: Patients with AEs ≥Grade 3, number of patients (monotherapy 90 mg/m^2 (n = 4))
3: Metabolism and nutritional disorders ≥Grade 3, number of patients (monotherapy 90 mg/m^2 (n = 4)) | Grade: Hypokalemia [1] | Grade: Palmar-plantar erythrodysesthesia (hand and foot) syndrome [1]
1^a: Platelet count decreased ≥Grade 3, number of patients (monotherapy 90 mg/m^2 (n = 4))
No: Dose-limiting Toxicity (DLT): Coagulopathy [1] | Dose-limiting Toxicity (DLT): Confusion [1] | Dose-limiting Toxicity (DLT): Diarrhea [1] | Dose-limiting Toxicity (DLT): Edema (limbs) [1] | Dose-limiting Toxicity (DLT): Fever (pyrexia) [1] | Dose-limiting Toxicity (DLT): Hyperkalemia [1] | Dose-limiting Toxicity (DLT): Hypocalcemia [1] | Dose-limiting Toxicity (DLT): Hypokalemia [1] | Dose-limiting Toxicity (DLT): Multi-organ failure [1] | Dose-limiting Toxicity (DLT): Nausea [1] | Dose-limiting Toxicity (DLT): Pain [1] | Dose-limiting Toxicity (DLT): Pain in extremity [1] | Dose-limiting Toxicity (DLT): Pruritus [1] | Dose-limiting Toxicity (DLT): Blood creatinine increased [2]
No and Yes ^a: Dose-limiting Toxicity (DLT): Mucositis [1]
2 and 4: Grade: Mucositis [1]
2: AML progression, number of patients (monotherapy 90 mg/m^2 (n = 4)) | Pneumonia ≥Grade 3, number of patients (monotherapy 90 mg/m^2 (n = 4)) | Grade: Edema (limbs) [1] | Grade: Hyperkalemia [1] | Grade: Nausea [1] | Grade: Pain [1] | Grade: Pain in extremity [1] | Grade: Blood creatinine increased [2]
